Laboratory results published in US20080021026A1, “BENZOTHIOPHENE INHIBITORS OF RHO KINASE” (priority 2006, published 2008).
Where two headings read alike, the source gives them in different places.

How the values were obtained:
[1] = target: T1, recombinant N-terminal GST-tagged human Rho kinase 2 (ROCK2, amino acids 1-552) (Homo sapiens, UniProt O75116); assay: In vitro Rho kinase assay (luciferase-based ATP consumption), ROCK2; type: biochemical
T1 construct: ROCK2, amino acids 1-552; purchased Invitrogen Inc. PV3759
In short: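 Luciferase-based luminescence of leftover ATP after 2 h at 30 °C, where inhibition raises signal, reports activity of GST-tagged ROCK2 (aa 1-552) at 0.82 μg/ml. Conditions: S6 peptide 100 μg/ml, […], pH 7.5 Tris buffer. Results given as percent of H-1152P control activity.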

[2] = target: T2, recombinant N-terminal GST-tagged human Rho kinase 1 (ROCK1, amino acids 1-535) (Homo sapiens, UniProt Q13464); assay: In vitro Rho kinase assay (luciferase-based ATP consumption), ROCK1; type: biochemical
T2 construct: ROCK1, amino acids 1-535; purchased Invitrogen Inc. PV-3691
In short: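 ATP depletion measured by firefly luciferase luminescence after 2 h at 30 °C, with inhibition raising signal and activity expressed relative to H-1152P. Reaction: 0.82 μg/ml recombinant GST-tagged ROCK1 (aa 1-535), S6 peptide 100 μg/ml, […], pH 7.5 Tris buffer.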

[3] = recombinant GST-tagged human ROCK2, luciferase-based ATP consumption, read-out: ROCK2 IC50
[4] = recombinant GST-tagged human ROCK1, luciferase-based ATP consumption, read-out: ROCK1 IC50

T2 sequence (Q13464 1-535): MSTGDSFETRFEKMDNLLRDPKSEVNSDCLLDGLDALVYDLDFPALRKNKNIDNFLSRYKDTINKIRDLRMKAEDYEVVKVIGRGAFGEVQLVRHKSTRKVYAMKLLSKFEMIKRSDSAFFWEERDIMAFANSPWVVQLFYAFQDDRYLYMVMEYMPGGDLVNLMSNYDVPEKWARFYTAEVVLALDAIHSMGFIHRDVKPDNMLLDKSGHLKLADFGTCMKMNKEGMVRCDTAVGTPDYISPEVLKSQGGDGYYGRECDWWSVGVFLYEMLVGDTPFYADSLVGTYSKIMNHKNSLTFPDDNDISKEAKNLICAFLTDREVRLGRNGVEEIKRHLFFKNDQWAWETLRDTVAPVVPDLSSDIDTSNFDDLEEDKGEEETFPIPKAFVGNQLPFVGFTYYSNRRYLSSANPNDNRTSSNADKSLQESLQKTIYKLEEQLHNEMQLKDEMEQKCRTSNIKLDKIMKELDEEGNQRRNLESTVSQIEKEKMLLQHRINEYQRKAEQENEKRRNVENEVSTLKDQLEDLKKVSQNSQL
T1 sequence (O75116 1-552): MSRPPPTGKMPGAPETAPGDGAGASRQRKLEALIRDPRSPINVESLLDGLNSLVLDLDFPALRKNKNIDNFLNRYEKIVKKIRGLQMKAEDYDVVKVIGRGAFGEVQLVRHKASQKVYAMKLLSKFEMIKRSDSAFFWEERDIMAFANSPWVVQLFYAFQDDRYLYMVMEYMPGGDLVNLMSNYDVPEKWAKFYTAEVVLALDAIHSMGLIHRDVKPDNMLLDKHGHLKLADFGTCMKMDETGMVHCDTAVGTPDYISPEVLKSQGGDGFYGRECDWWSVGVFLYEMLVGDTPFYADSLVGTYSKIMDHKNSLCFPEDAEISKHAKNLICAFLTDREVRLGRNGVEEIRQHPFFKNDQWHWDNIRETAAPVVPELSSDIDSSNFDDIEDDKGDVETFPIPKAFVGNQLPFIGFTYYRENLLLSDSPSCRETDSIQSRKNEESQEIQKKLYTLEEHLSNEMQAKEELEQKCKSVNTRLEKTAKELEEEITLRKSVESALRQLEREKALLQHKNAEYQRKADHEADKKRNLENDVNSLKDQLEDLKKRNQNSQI

Row | SMILES | IC50 [1, 3] | IC50 [2, 4] | IC50 ([1]; ROCK2 IC50, recombinant GST-tagged human ROCK2, luciferase-based ATP consumption) | IC50 ([2]; ROCK1 IC50, recombinant GST-tagged human ROCK1, luciferase-based ATP consumption)
1 | Cc1c(-c2ccnc(N)n2)sc2ccc(CNC(=O)C(NC(=O)OC(C)(C)C)C(C)C)cc12 (centres unmarked) [Example 292, CC(C)[C](NC(═O)OC(C)(C)C)C(═O)NCc1ccc2sc(c(C)c2c1)-c3ccnc(N)n3] | > 5 µM | < 5 µM |  | 
2 | Cc1c(-c2ccnc(N)n2)sc2ccc(CNC(=O)c3cc(F)c(F)cc3Cl)cc12 [Example 252, Cc1c(sc2ccc(CNC(═O)c3cc(F)c(F)cc3Cl)cc12)-c4ccnc(N)n4] |  |  | < 5 µM | < 5 µM
3 | Cc1c(-c2ccnc(N)n2)sc2ccc(CNC(=O)c3cccnc3)cc12 [Example 109, Cc1c(sc2ccc(CNC(═O)c3cccnc3)cc12)-c4ccnc(N)n4] | < 5 µM | > 5 µM |  | 
4 | CCOC(=O)CC(=O)NCc1ccc2sc(-c3ccnc(N)n3)c(C)c2c1 [Example 117, CCOC(═O)CC(═O)NCc1ccc2sc(c(C)c2c1)-c3ccnc(N)n3] | < 5 µM | > 5 µM |  | 
5 | CCN(CC)c1ccc(C(=O)NCc2ccc3sc(-c4ccnc(N)n4)c(C)c3c2)cc1 [Example 254, CCN(CC)c1ccc(cc1)C(═O)NCc2ccc3sc(c(C)c3c2)-c4ccnc(N)n4] | < 5 µM | > 5 µM |  | 
6 | Cc1c(-c2ccnc(N)n2)sc2ccc(CNC(=O)c3ccnc(Cl)c3)cc12 [Example 150, Cc1c(sc2ccc(CNC(═O)c3ccnc(Cl)c3)cc12)-c4ccnc(N)n4] | < 5 µM | < 5 µM |  | 
7 | Cc1c(-c2ccnc(N)n2)sc2ccc(CNC(=O)C(Cl)(Cl)Cl)cc12 [Example 160, Cc1c(sc2ccc(CNC(═O)C(Cl)(Cl)Cl)cc12)-c3ccnc(N)n3] | < 5 µM | < 5 µM |  | 
8 | CCCOc1ccc(C(=O)NCc2ccc3sc(-c4ccnc(N)n4)c(C)c3c2)cc1 [Example 213, CCCOc1ccc(cc1)C(═O)NCc2ccc3sc(c(C)c3c2)-c4ccnc(N)n4] | > 5 µM | < 5 µM |  | 
9 | Cc1c(-c2ccnc(N)n2)sc2ccccc12 [Example 14, 4-(3-Methylbenzo[b]thiophen-2-yl)pyrimidin-2-amine] | < 5 µM | < 5 µM |  | 
10 | Cc1c(-c2ccnc(N)n2)sc2ccc(CNC(=O)c3ccc4ncccc4c3)cc12 [Example 192, Cc1c(sc2ccc(CNC(═O)c3ccc4ncccc4c3)cc12)-c5ccnc(N)n5] | < 5 µM | > 5 µM |  | 
11 | COc1cccc(Oc2ccc3sc(-c4ccnc(N)n4)c(C)c3c2)c1 [Example 81, 4-(5-(3-Methoxyphenoxy)-3-methylbenzo[b]thiophen-2-yl)pyrimidin-2-amine] | < 5 µM | < 5 µM |  | 
12 | Cc1c(-c2ccnc(N)n2)sc2ccc(Br)cc12 [Example 13, 4-(5-Bromo-3-methylbenzo[b]thiophen-2-yl)pyrimidin-2-amine] | < 5 µM | < 5 µM |  | 
13 | Cc1c(-c2ccnc(N)n2)sc2ccc(Cc3ccccc3)cc12 [Example 24, 4-(5-Benzyl-3-methylbenzo[b]thiophen-2-yl)pyrimidin-2-amine] | < 5 µM | < 5 µM |  | 
14 | Cc1ccc([N+](=O)[O-])c(C(=O)NCc2ccc3sc(-c4ccnc(N)n4)c(C)c3c2)c1 [Example 217, Cc1ccc(c(c1)C(═O)NCc2ccc3sc(c(C)c3c2)-c4ccnc(N)n4)[N+]([O−])═O] | < 5 µM | > 5 µM |  | 
15 | Cc1c(-c2ccnc(N)n2)sc2ccc(Nc3cccc(NC(=O)c4ccc(O)cc4)c3)cc12 [Example 61, N-(3-(2-(2-Aminopyrimidin-4-yl)-3-methylbenzo[b]thiophen-5-ylamino)phenyl)-4-hydroxybenzamide] | < 5 µM | < 5 µM |  | 
16 | Cc1c(-c2ccncc2)sc2ccc(Cl)cc12 [Example 4, 4-(5-Chloro-3-methylbenzo[b]thiophen-2-yl)pyridine] | > 5 µM | > 5 µM |  | 
17 | COc1cc(C(=O)Nc2ccc3sc(-c4ccnc(N)n4)c(C)c3c2)cc(OC)c1OC [Example 73, N-(2-(2-Aminopyrimidin-4-yl)-3-methylbenzo[b]thiophen-5-yl)-3,4,5-trimethoxy benzamide] | > 5 µM | > 5 µM |  | 
18 | Cc1c(-c2ccnc(N)n2)sc2ccc(CNC(=O)c3ccc(Cl)c([N+](=O)[O-])c3)cc12 [Example 268, Cc1c(sc2ccc(CNC(═O)c3ccc(Cl)c(c3)[N+]([O−])═O)cc12)-c4ccnc(N)n4] | < 5 µM | > 5 µM |  | 
19 | Cc1c(-c2ccnc(N)n2)sc2ccc(CNC(=O)C(C)c3ccc(-c4ccccc4)c(F)c3)cc12 (centres unmarked) [Example 318, CC(C(═O)NCc1ccc2sc(c(C)c2c1)-c3ccnc(N)n3)c4ccc(c(F)c4)-c5ccccc5] | < 5 µM | > 5 µM |  | 
20 | Cc1c(-c2cc(N)ncn2)sc2ccc(Cl)cc12 [Example 8, 6-(5-Chloro-3-methylbenzo[b]thiophen-2-yl)pyrimidin-4-amine] | > 5 µM | > 5 µM |  | 

More lines, main results first:

Row | IC50 [1, 3] | IC50 [2, 4] | SMILES | IC50 ([1]; ROCK2 IC50, recombinant GST-tagged human ROCK2, luciferase-based ATP consumption) | IC50 ([2]; ROCK1 IC50, recombinant GST-tagged human ROCK1, luciferase-based ATP consumption)
21 | < 5 µM | < 5 µM | Cc1c(-c2ccnc(N)n2)sc2ccc(CNC(=O)CCc3nc4ccccc4[nH]3)cc12 [Example 244, Cc1c(sc2ccc(CNC(═O)CCc3nc4ccccc4[nH]3)cc12)-c5ccnc(N)n5] |  | 
22 | < 5 µM | > 5 µM | COc1cccc(C(=O)NCc2ccc3sc(-c4ccnc(N)n4)c(C)c3c2)c1OC [Example 222, COc1cccc(C(═O)NCc2ccc3sc(c(C)c3c2)-c4ccnc(N)n4)c1OC] |  | 
23 | < 5 µM | < 5 µM | CCN(CC)CCNc1nccc(Nc2ccc3sc(-c4ccnc(N)n4)c(C)c3c2)n1 [Example 77, N^4-(2-(2-Aminopyrimidin-4-yl)-3-methylbenzo[b]thiophen-5-yl)-N^2-(2-(diethylamino)ethyl)pyrimidine-2,4-diamine] |  | 
24 | < 5 µM | < 5 µM | Cc1c(-c2ccnc(N)n2)sc2ccc(CNC(=O)c3cc([N+](=O)[O-])ccc3F)cc12 [Example 229, Cc1c(sc2ccc(CNC(═O)c3cc(ccc3F)[N+]([O−])═O)cc12)-c4ccnc(N)n4] |  | 
25 | < 5 µM | < 5 µM | Cc1c(-c2ccnc(N)n2)sc2ccc(CNC(=O)c3cc(F)c(F)c(O)c3F)cc12 [Example 248, Cc1c(sc2ccc(CNC(═O)c3cc(F)c(F)c(O)c3F)cc12)-c4ccnc(N)n4] |  | 
26 | < 5 µM | > 5 µM | Cc1ccc(O)c(C(=O)NCc2ccc3sc(-c4ccnc(N)n4)c(C)c3c2)c1 [Example 141, Cc1ccc(O)c(c1)C(═O)NCc2ccc3sc(c(C)c3c2)-c4ccnc(N)n4] |  | 
27 | < 5 µM | < 5 µM | Cc1c(-c2ccnc(N)n2)oc2ccc(Cc3cccc(O)c3)cc12 [Example 92, 3-((2-(2-Aminopyrimidin-4-yl)-3-methylbenzofuran-5-yl)methyl)phenol] |  | 
28 | < 5 µM | < 5 µM | Cc1c(-c2ccnc(N)n2)sc2ccc(CNC(=O)c3c(F)cccc3F)cc12 [Example 153, Cc1c(sc2ccc(CNC(═O)c3c(F)cccc3F)cc12)-c4ccnc(N)n4] |  | 
29 | < 5 µM | > 5 µM | Cc1c(-c2ccnc(N)n2)sc2ccc(CNC(=O)CCc3ccccc3O)cc12 [Example 176, Cc1c(sc2ccc(CNC(═O)CCc3ccccc3O)cc12)-c4ccnc(N)n4] |  | 
30 | < 5 µM | > 5 µM | Cc1c(-c2ccnc(N)n2)sc2ccc(CNC(=O)CCc3cccc(Br)c3)cc12 [Example 304, Cc1c(sc2ccc(CNC(═O)CCc3cccc(Br)c3)cc12)-c4ccnc(N)n4] |  | 
31 | < 5 µM | > 5 µM | COc1ccc(C(=O)NCc2ccc3sc(-c4ccnc(N)n4)c(C)c3c2)c(OC)c1 [Example 219, COc1ccc(C(═O)NCc2ccc3sc(c(C)c3c2)-c4ccnc(N)n4)c(OC)c1] |  | 
